Results from patent publication US20050119288A1, “Dosing schedule for a novel anticancer agent” (Pfizer Inc, priority 2003, published 2005).
Where two headings read alike, the source gives them in different places.

Key:
[1] = Pharmacokinetics in MDA-MB-453 tumor-bearing mice; format: in vivo; settings: day 29; for Cave0-4 h / AUC(0-t) / Cmax: PO; for AUC(0-t) / Cmax: female, athymic, mouse, blood, po; for AUC(0-t): read-out: AUC0-4 h; for Cmax: read-out: Cmax 0.5 h
Experimental: Study Design: Exponentially growing MDA-MB-453 cells (DMEM/F12 with 10% FBS, and pen/strep [Gibco]) were harvested and inoculated SC (5 million cells/animal) into female athymic mice. MDA-MB-453 tumor bearing mice (˜100 mm^3 in size, N=64) were randomized in 8 groups consisting 8 animals each. Animals were treated with vehicle (PO, QD or BID) or the test compound (PO, QD or BID) as described in Table 6. The tumor measurements and body weight changes were obtained on days 1, 3, 7, 10, 14, 17, 21, 24, and 29. Tumor volume was calculated by the following formula: Tumor volume (mm^3)═(W×W)/2×L (L=length & W=width). Blood samples (˜50 μl) were isolated at 0.5, 1, 2, 4 and 8 hrs after dosing on day 29 for PK-analysis. Tumors were isolated at 0.5 hr post-dosing on day 29 for PD-analysis by ELISA.

[2] = system: BT-474 tumors; assay: BT-474 xenograft tumor growth in athymic mice; format: in vivo, human; settings: PO; for % Growth inhibition: 22 days
Description: The in vivo anti-tumor activity of the compounds for use in the methods of the present invention can be determined by the amount of inhibition of tumor growth by a test compound relative to a control. The tumor growth inhibitory effects of various compounds can be measured according to the method of Corbett T. H., et al., “Tumor Induction Relationships in Development of Transplantable Cancers of the Colon in Mice for Chemotherapy Assays, with a Note on Carcinogen Structure”, Cancer Res., 35, 2434-2439 (1975) and Corbett T. H., et al., “A Mouse Colon-tumor Model for Experimental Therapy”, Cancer Chemother. Rep. (Part 2)”, 5, 169-186 (1975), with slight modifications. Tumors can be induced in the left flank of mice by subcutaneous (sc) injection of 1-5 million log phase cultured tumor cells suspended in 0.1 ml RPMI 1640 medium. After sufficient time has elapsed for the tumors to become palpable (˜100-150 mm^3 in size/5-6 mm in diameter) the test animals (athymic female mice) are treated with test compound (formulated at a concentration of 10 to 15 mg/ml in 5 Gelucire or 0.5% methyl cellulose) by the intravenous (iv) or oral (po) route of administration once or twice daily for 7 to 29 consecutive days. In order to determine an anti-tumor effect, the tumor is measured in millimeters with a Vernier caliper across two diameters and the tumor size (mm^3) is calculated using the formula: Tumor size (mm^3)=(W×W)/2×L (L=length and W=width), according to the methods of Geran, R. I., et al. “Protocols for Screening Chemical Agents and Natural Products Against Animal Tumors and Other Biological Systems”, Third Edition, Cancer Chemother. Rep., 3, 1-104 (1972). Results are expressed as percent inhibition, according to the formula: Inhibition Growth (%)=[100-{(% Growth of Treated/% Growth of Control)×100}]. The flank site of tumor implantation provides reproducible dose/response effects for a variety of chemotherapeutic agents, and the method of measurement (tumor diameter) is a reliable method for assessing tumor growth rates.
Exponentially growing BT-474 cells (RPMI 1640 with 10 mM HEPES, 10% FBS, and pen/strep [Gibco]) were harvested and inoculated SC (5 million cells/animal) into female athymic mice. Trochar pieces of BT-474 tumors were then implanted into the right flank of animals. BT-474 tumor bearing mice (50-320 mm^3 in size, N=40) were randomized in 7 groups consisting 5-6 animals each. Animals were treated with vehicle (PO, BID) or the test compound (PO, QD or BID) as described in Table 4. The tumor measurements and body weight changes were obtained on days 1, 6, 11, 15 and 22. Tumor volume was calculated by the following formula: Tumor volume (mm^3)═(W×W)/2×L (L=length & W=width). Blood samples (˜50 μl) were isolated at 0.5, 1, 2, 4 and 8 hrs after dosing on day 22 for PK-analysis. Tumors were isolated at 0.5 hr post-dosing on day 22 for PD-analysis by ELISA.
Statistical Analysis: ANOVA was conducted on the percentage growth data and planned comparisons were conducted between like-doses. The data were log transformed for the analysis due to the distribution of the values. The Dunnett-Tamahane procedure was used for the multiple comparison analysis.
Thus, oral anti-tumor efficacy of the test compound (QD and BID) was determined against human breast adenocarcinoma model BT-474 which overexpresses erbB2. The test compound administration (QD or BID) was efficacious and caused growth inhibition of BT-474 xenografts (FIGS. 5a and 5b). […] Due to a wide variation in the initial tumor volume, % growth of individual tumor was calculated and an average of each group was used to determine relative anti-tumor efficacy.

[3] = Body weight and tolerability, FRE/erbB2 study

For `COCC(=O)NC/C=C/c1ccc2ncnc(Nc3ccc(Oc4ccc(C)nc4)c(C)c3)c2c1` [Test Compound, E-2-Methoxy-N-(3-{4-(3-methyl-4-(6-methyl-pyridin-3-yloxy)-phenylamino)-quinazolin-6-yl}-allyl)-acetamide], the Cave0-4 h ([1]; 25 mg/kg, BID) was 215 ng/mL, the Cave0-4 h ([1]; 50 mg/kg, BID) was 509 ng/mL and the Cave0-4 h ([1]; 50 mg/kg, QD) was 591 ng/mL. For the same molecule, the Cave0-4 h ([1]; 100 mg/kg, BID) was 1710 ng/mL, the Cave0-4 h ([1]; 100 mg/kg, QD) was 3120 ng/mL and the Cave0-4 h ([1]; 200 mg/kg, QD) was 6510 ng/mL. For the same molecule, the “Cave0-4 h, 200 mg/kg QD group relative to 100 mg/kg BID group” value [1] was 3.8 fold, the “Cmax, 100 mg/kg QD group relative to 50 mg/kg QD and 50 mg/kg BID groups” value [1] was “approximately 4 fold” and the “Cmax, 200 mg/kg QD group relative to 100 mg/kg BID group” value [1] was 2.4 fold. The AUC(0-t) ([1]; 25 mg/kg, BID) was 857 ng·h/mL, the Cmax ([1]; 25 mg/kg, BID) was 952 ng/mL and the AUC(0-t) ([1]; 50 mg/kg, BID) was 2040 ng·h/mL. For the same molecule, the Cmax ([1]; 50 mg/kg, BID) was 2390 ng/mL, the AUC(0-t) ([1]; 50 mg/kg, QD) was 2360 ng·h/mL and the Cmax ([1]; 50 mg/kg, QD) was 2760 ng/mL. The AUC(0-t) ([1]; 100 mg/kg, BID) was 6840 ng·h/mL, the Cmax ([1]; 100 mg/kg, BID) was 6870 ng/mL and the AUC(0-t) ([1]; 100 mg/kg, QD) was 12500 ng·h/mL. The Cmax ([1]; 100 mg/kg, QD) was 9770 ng/mL, the AUC(0-t) ([1]; 200 mg/kg, QD) was 26100 ng·h/mL and the Cmax ([1]; 200 mg/kg, QD) was 16700 ng/mL. For the same molecule, the “Tumor volume Day 1 (Mean ± SE)” value ([2]; BID 50 mg/kg) was 155 ± 42 mm^3, the “% Growth inhibition” value ([2]; BID, 15 mg/kg (Total Daily Dose = 30 mg/kg)) was 54% and the “Tumor volume Day 1 (Mean ± SE)” value ([2]; BID, 15 mg/kg) was 114 ± 47 mm^3. The “Tumor volume Day 22 (Mean ± SE)” value ([2]; BID, 15 mg/kg) was 520 ± 254 mm^3, the “% Growth inhibition” value ([2]; BID, 30 mg/kg (Total Daily Dose = 60 mg/kg)) was 68% and the “Tumor volume Day 1 (Mean ± SE)” value ([2]; BID, 30 mg/kg) was 161 ± 44 mm^3. The “Tumor volume Day 22 (Mean ± SE)” value ([2]; BID, 30 mg/kg) was 530 ± 240 mm^3, the “% Growth inhibition” value ([2]; BID, 50 mg/kg (Total Daily Dose = 100 mg/kg)) was 68% and the “Tumor volume Day 22 (Mean ± SE)” value ([2]; BID, 50 mg/kg) was 413 ± 98 mm^3. For the same molecule, the “Tumor volume Day 1 (Mean ± SE)” value ([2]; QD 50 mg/kg) was 153 ± 40 mm^3, the “% Growth inhibition” value ([2]; QD, 15 mg/kg) was 22% and the “Tumor volume Day 1 (Mean ± SE)” value ([2]; QD, 15 mg/kg) was 78 ± 18 mm^3. The “Tumor volume Day 22 (Mean ± SE)” value ([2]; QD, 15 mg/kg) was 376 ± 79 mm^3, the “% Growth inhibition” value ([2]; QD, 30 mg/kg) was 33% and the “Tumor volume Day 1 (Mean ± SE)” value ([2]; QD, 30 mg/kg) was 139 ± 31 mm^3. The “Tumor volume Day 22 (Mean ± SE)” value ([2]; QD, 30 mg/kg) was 635 ± 189 mm^3, the “% Growth inhibition” value ([2]; QD, 50 mg/kg) was 35% and the “Tumor volume Day 22 (Mean ± SE)” value ([2]; QD, 50 mg/kg) was 608 ± 136 mm^3. For the same molecule, the “average body weight Day 1” value ([3]; 1.4 mg/kg IV, QD, 15 min/day) was 23 g, the “average body weight Day 7” value ([3]; 1.4 mg/kg IV, QD, 15 min/day) was 24 g and the “average body weight Day 1” value ([3]; 10.7 mg/kg IV, 4 hr/day) was 22 g. For the same molecule, the “average body weight Day 7” value ([3]; 10.7 mg/kg IV, 4 hr/day) was 22 g, the “average body weight Day 1” value ([3]; 25 mg/kg PO, QD) was 21 g and the “average body weight Day 7” value ([3]; 25 mg/kg PO, QD) was 22 g. The “body weight loss or mortality” value ([3]; FRE/erbB2 study, 7 days) was “did not cause any body weight loss or mortality”.
